Experimental findings from patent US11766434B2, “Pyrimidinone derivatives as CDC7 inhibitors” (Cancer Research Technology Limited, priority 2016, dated 2023) are described below.

In test [1] the target is T1, Cdc7/ASK (Homo sapiens, UniProt O00311). The experiment in a line: Cdc7 biochemical assay Method 1: 384 well ELISA, MCM2 whole protein substrate, Phospho MCM2 (S53) antibody. Set-up: purchased. The settings on record: ATP 2 μM, 90 minutes, read-out: Biochemical method 1 (pIC50) (converted). On the procedure: This protocol describes a method for assaying Cdc7/ASK for activity. The assay is a 384 well ELISA assay, utilising a whole protein substrate (MCM2) and an antibody against Phospho MCM2 (S53). This site is thought to be specific to Cdc7/ASK phosphorylation and the assay has been validated using knockout mutants.
• TBS: 25 mM Tris pH 7.2, 150 mM NaCl. (Dilute 10× stock by 1:10). • Wash Buffer: TBS+0.05% Tween 20. (Add 100 mL 1 M Tris pH 7.2, 120 mL 5 M NaCl and 2 mL 100% Tween 20 per 4 L). • Kinase Reaction Buffer: 50 mM Tris-HCl pH 8.5, 10 mM MgCl2, 1 mM DTT. (Dilute 10× stock by 1:10 and add 100 μL 1M DTT per 100 mL prior to assay). • Diethanolamine Buffer: 1 M diethanolamine pH 9.8, 0.5 mM MgCl2. • Stop Solution: 1 M NaOH. • MCM2 was expressed and purified in-house and used in the assay at a final assay concentration of 436 ng/well. • Cdc7/ASK is purchased from commercial suppliers and used in the assay at a final assay concentration of 37.97 ng/well or 20.63 nM. • ATP used as a final assay concentration of 2 μM. • Primary Antibody: Rabbit anti-Phospho MCM2 (S53 Antibody (BL3353)), is purchased from commercial suppliers at 0.2 mg/mL and used at a final assay concentration by diluting 1:800 in TBS. • Secondary Antibody: Anti-Rabbit/AP Antibody is supplied is purchased from commercial suppliers at 1 mg/mL and used at a final assay concentration by diluting 1:2000 in TBS. • Development Reagent: Dissolve one 20 mg PNPP tablet (Sigma, product N2765, 20 mg per tablet) per 20 mL diethanolamine Buffer (or one 5 mg PNPP tablet per 5 mL diethanolamine buffer). Cover in foil and leave shaking on a roller shaker at room temperature for up to an hour to dissolve. Methods • 1. Add 20 μL 1× working stock of Substrate (MCM2) in TBS to all wells of a clear, 384 well, Nickel-chelate microplate to give a final concentration of 250 ng/well. Incubate at room temperature for at least 1 hour. Plates can be pre-coated for 1 hour and stored at 4° C. for up to 8 days. • 2. Wash with TBS+0.05% Tween 20 (80 μL x 3). • 3. Add 2 μL 10× test compounds, including the positive control, in 40% DMSO/water to ‘test’ wells. Add 2 μL 40% DMSO/water to ‘control’ and ‘blank’ wells. The final DMSO concentration will be 4%. • 4. Add 13 μL CDCl7/ASK Kinase (1.5× stock) in Kinase Reaction Buffer to ‘test’ and ‘control’ wells to give a final concentration of […]. Add 13 μL Kinase Reaction Buffer to ‘blank’ wells. • 5. Add 5 μL ATP (4× stock) in Kinase Reaction Buffer to all wells to give a final concentration of 2 μM. • 6. Incubate at room temperature for 90 minutes. • 7. Wash with TBS+0.05% Tween 20 (80 μL x 3). • 8. Add 20 μL 1× working solution of Primary Antibody in TBS to all wells. Incubate at room temperature for 30 minutes. • 9. Wash with TBS+0.05% Tween 20 (80 μL x 3). • 10. Add 20 μL 1× working solution of Secondary Antibody in TBS to all wells. Incubate at room temperature for 30 minutes. • 11. Wash with TBS+0.05% Tween 20 (80 μL x 3). • 12. Add 20 μL 1× Development Reagent to all wells. • 13. Incubate at room temperature for 2 hours. Stop the reaction by adding 20 μL Stop Solution to all wells and record Absorbance on a Pherastar plate reader.
Percentage inhibition values were calculated from absorbance values, using the no compound (DMSO) and no enzyme control values as 0% and 100% inhibition, respectively. IC50 determination was performed with ExcelFit software (IDBS) using curve fit 205. Z′ factors were determined for each plate tested and were all above 0.5.
(In general: ELISA stands for enzyme-linked immunosorbent assay.)

For test [2], the target named is T2, Cdc7 (Homo sapiens, UniProt O00311). The experiment in a line: Cdc7 cell pharmacodynamics assay Method 1: pS53MCM2 levels in HCT116 cells. It counts as cell-based. Set-up: endogenous in cells. As to conditions: 6 hours treatment, read-out: Biomarker Method 1 (pEC50) (converted). From the text: This protocol describes a method to investigate the inhibition of Cdc7 activity of compounds by measuring pS53MCM2 levels in cells after treatment.
• HCT116 cells (wild type P53 positive) • McCoys 5A media (PAA Laboratories Ltd, E15-022) • 10% FCS (Sera Laboratories International Ltd, EU000F Batch: 108005) • 100× L-Glutamine (Invitrogen, 25030-024) • D-PBS without CaCl2 and MgCl2 (Invitrogen, ref. 14190-094) • Trypsin/EDTA (Invitrogen 25300-054) • 2% BSA in PBS • Cell Extraction Buffer (Invitrogen FNN0011) • Protease inhibitor cocktail (Sigma P-2714) • PMSF 0.3M stock in DMSO (Sigma P7626) • Antibody—rabbit pMCM2 Ser53 (Bethyl #A300-756A) • Antibody—goat MCM2 (Bethyl #A300-122A) • Antibody—goat Anti Rabbit IgG HRP (Perbio Science UK Ltd 31462) • 1×PBS • FACE Wash buffer (0.02% Triton X100 in 1×PBS) • SuperSignal ELISA Pico Chemiluminescent Substrate (Perbio Science UK Ltd 37070) Method • 72 hours prior to the start of the experiment plate 1×10^6 HCT116 cells in a 150 cm^2 flask in complete McCoys 5A media (+10% FCS+1× L-glutamine). • Plate 20,000 HCT116 cells per well in standard TC treated 96 well plate in 100 μL complete McCoys 5A media. • Allow cells to settle overnight in incubator set at 37° C. and 5% CO2. • Remove intermediate plate from fridge and place at 37° C. overnight to allow to equilibrate. • Cell treatment: cell assay plate 100 μL; daughter to cell transfer volume 3.33 μL; daughter volume 45 μL; mother plate to daughter volume 5 μL. • Once all cells are treated remove the cells to the incubator and incubate for 6 hours. • Dilute the capture antibody (total MCM2 #A300-122A) 1 in 250 in the required volume of PBS (5 mL per assay plate) and add 50 μL to each well of a Hybond plate excluding wells 12E to 12H. In these wells add 50 μL PBS. Seal the plate and incubate at room temperature fora minimum of 2 hours. • Defrost aliquot of Invitrogen Cell Extraction Buffer (FNN0011) on ice and supplement with appropriate volume of both Sigma protease inhibitor cocktail (P-2714) and PMSF (final cone 1 mM from a […] in DMSO). • After the 6 hour cell treatment time tap out the media from the assay plates and place them in the −70° C. freezer for at least 5 minutes. • Remove plates from freezer and add 20 μL of ice cold complete lysis buffer on ice. Incubate cells for 30 minutes at 4° C. • Add 80 μL per well 2% BSA. • Transfer 80 μL from the lysis plate to the same wells in the capture/ELISA plate. Cover with plate seal and incubate plates overnight at 4° C. • Wash plates with PBS, remove any residual remaining liquid and add 50 μL per well of pMCM2 Ser53 antibody (#A300-756A) diluted 1 in 100 in 2% BSA. Cover plate and incubate at room temperature for 2 hours with gentle shaking. • Wash plates with PBS, remove any residual remaining liquid and Incubate with 50 μL goat anti rabbit antibody (1 in 800 dilution in 2% BSA) for 1 hour at room temperature. • Wash plates with PBS, remove any residual remaining liquid and add 50 μL mixed SuperSignal Pico substrate. • Incubate each plate for 5 minutes at room temperature shielding the plates from direct light (with a cover plate). Read plates with the luminescent detection. Method 2

The target in test [3] is T2, Cdc7. The experiment in a line: Cdc7 cell pharmacodynamics assay Method 3: pS53MCM2 levels in SW48 cells. It counts as cell-based. Also noted: endogenous in cells; host or cells: SW48. The settings on record: 6 hours treatment, read-out: Biomarker Method 3 (pEC50) (converted). From the text: This protocol describes a method to investigate the inhibition of Cdc7 activity by measuring pS53MCM2 levels in cells, after treatment with compounds.
• SW48 cells • RPMI 1640 (Sigma, R5886) • 10% FCS (Sera Laboratories International Ltd, EU000F Batch: 108005) • 100× L-Glutamine (Invitrogen, 25030-024) • D-Glucose Solution (10%) (Sigma, G8644) • HEPES Buffer Solution (Sigma, 83264) • Sodium Pyruvate (Sigma, S8636) • PBS (Fisger, BP399-4) • Trypsin/EDTA (Invitrogen 25300-054) • 2% BSA in PBS • Cell Extraction Buffer (Invitrogen FNN0011) • Protease inhibitor cocktail (Sigma P-2714) • PMSF 0.3M stock in DMSO (Sigma P7626) • Antibody—rabbit pMCM2 Ser53 (Bethyl #A300-756A) • Antibody—goat MCM2 (Bethyl #A300-122A) • Antibody—goat Anti Rabbit IgG HRP (Perbio Science UK Ltd 31462) • SuperSignal ELISA Pico Chemiluminescent Substrate (Perbio Science UK Ltd 37070) Method • Plate 30,000 SW48 cells per well in standard TC treated 96 well plate in 100 μL complete RPMI 1640 medium. • Allow cells to settle overnight in incubator set at 37° C. and 5% CO2. • Cell treatment: prepare a 384 well plate containing 80 μl PBS/well. The PBS should be at room temperature—to be referred to as intermediate plate. Transfer 2 μL of compound from mother plate to intermediate (daughter plate) 1:40 dilution, then 5 μL intermediate to cell (daughter) plate. • Once all cells are treated place the cells back to the incubator and incubate for 6 hours. • Dilute the capture antibody (total MCM2 #A300-122A) 1 in 250 in the required volume of PBS (5 mL per assay plate, plus 5 mL for dead volume) and add 50 μL to each well of a Hybond plate. Seal the plate and incubate at room temperature for a minimum of 2 hours. • Defrost aliquot of Invitrogen Cell Extraction Buffer (FNN0011) on ice and supplement with appropriate volume of both Sigma protease inhibitor cocktail (P-2714) and PMSF (final cone 1 mM from a 1 M stock in DMSO). • After the 6 hour cell treatment time, tap out the media from the assay plates and place them in the −80° C. freezer for at least 5 minutes. • Remove plates from freezer and add 20 μL of ice cold complete lysis buffer, with the multidrop. Incubate cells for 30 minutes at 4° C. • Add 80 μL per well 2% BSA. • Flick out the remaining liquid from the capture plate and transfer 80 μL from the lysis plate to the same wells in the capture/ELISA plate, using the Biomek. Cover with plate seal and incubate plates overnight at 4° C. • Wash plates with PBS, remove any residual remaining liquid and add 50 μL per well of pMCM2 Ser53 antibody (#A300-756A) diluted 1 in 100 in 2% BSA. Cover plate and incubate at room temperature for 2 hours with gentle shaking. • Wash plates with PBS, remove any residual remaining liquid and Incubate with 50 μL goat anti rabbit antibody (1 in 800 dilution in 2% BSA), for 1 hour at room temperature. • Wash plates with PBS, remove any residual remaining liquid and add 50 μL mixed SuperSignal Pico substrate. • Incubate each plate for 5 minutes at room temperature shielding the plates from direct light (with a cover plate). Read plates with the luminescent detection. Results

Test [4] addresses T1, Cdc7/ASK. The experiment in a line: Cdc7 biochemical assay Method 3: off-chip mobility shift assay (MSA) run at Carna Biosciences. Also noted: purchased Carna Biosciences; host or cells: baculovirus expression system. The settings on record: MCM2 peptide 1000 nM, ATP 5 μM, 5 hours, read-out: Biochemical method 3 (pIC50) (converted). As for the experimental part: This protocol describes a method for assaying Cdc7/ASK for activity. The assay is an off-chip mobility shift assay (MSA) run at Carna Biosciences.
The test compound was dissolved in and diluted with dimethylsulfoxide (DMSO) to achieve 100-fold higher concentration which was specified by the sponsor. Then the solution was further 25-fold diluted with assay buffer to make the final test compound solution. Reference compounds for assay control were prepared similarly. 2. Kinase Cdc7/ASK: Full-length human Cdc7 [1-574(end) amino acids of accession number NP_003494.1] was co-expressed as N-terminal GST-fusion protein (92 kDa) with Dbf4(ASK) [1-674(end) amino acids of accession number NP_006707.1] using baculovirus expression system. GST-Cdc7 was purified by using glutathione sepharose chromatography. 3. Assay Reagents and Procedures Off-Chip Mobility Shift Assay (MSA) • 1) The […] were prepared with assay buffer (20 mM HEPES, 0.01% Triton X-100, 1 mM DTT, pH 7.5) and mixed and incubated in a well of polypropylene 384 well microplate for 5 hours at room temperature. • 2) […] of Termination Buffer (QuickScout Screening Assist MSA; Carna Biosciences) was added to the well. • 3) The reaction mixture was applied to LabChip system (Perkin Elmer), and the product and substrate peptide peaks were separated and quantitated. • 4) The kinase reaction was evaluated by the product ratio calculated from peak heights of product (P) and substrate (S) peptides (P/(P+S)). 4. Reaction Conditions
5. Data Analysis The readout value of reaction control (complete reaction mixture) was set as a 0% inhibition, and the readout value of background (Enzyme(−)) was set as a 100% inhibition, then the percent inhibition of each test solution was calculated. IC50 value was calculated from concentration vs. % Inhibition curves by fitting to a four parameter logistic curve. Results

T1 sequence (O00311 whole entry): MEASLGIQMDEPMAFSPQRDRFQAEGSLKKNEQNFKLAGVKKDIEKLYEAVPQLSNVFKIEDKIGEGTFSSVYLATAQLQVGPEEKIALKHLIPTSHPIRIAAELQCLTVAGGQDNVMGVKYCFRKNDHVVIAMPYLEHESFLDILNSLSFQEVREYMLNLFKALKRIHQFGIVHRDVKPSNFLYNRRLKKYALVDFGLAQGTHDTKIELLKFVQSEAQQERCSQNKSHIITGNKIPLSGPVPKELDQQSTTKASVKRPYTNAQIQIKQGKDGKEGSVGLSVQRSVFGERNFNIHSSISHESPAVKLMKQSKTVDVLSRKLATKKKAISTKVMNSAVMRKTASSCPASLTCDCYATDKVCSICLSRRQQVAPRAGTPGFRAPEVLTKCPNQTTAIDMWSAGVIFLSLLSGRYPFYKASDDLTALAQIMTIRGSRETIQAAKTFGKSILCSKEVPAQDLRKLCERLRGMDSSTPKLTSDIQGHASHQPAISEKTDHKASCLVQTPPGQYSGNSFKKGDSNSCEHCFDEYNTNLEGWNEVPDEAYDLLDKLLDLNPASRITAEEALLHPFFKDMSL
T1 sequence (Q9UBU7 whole entry partner): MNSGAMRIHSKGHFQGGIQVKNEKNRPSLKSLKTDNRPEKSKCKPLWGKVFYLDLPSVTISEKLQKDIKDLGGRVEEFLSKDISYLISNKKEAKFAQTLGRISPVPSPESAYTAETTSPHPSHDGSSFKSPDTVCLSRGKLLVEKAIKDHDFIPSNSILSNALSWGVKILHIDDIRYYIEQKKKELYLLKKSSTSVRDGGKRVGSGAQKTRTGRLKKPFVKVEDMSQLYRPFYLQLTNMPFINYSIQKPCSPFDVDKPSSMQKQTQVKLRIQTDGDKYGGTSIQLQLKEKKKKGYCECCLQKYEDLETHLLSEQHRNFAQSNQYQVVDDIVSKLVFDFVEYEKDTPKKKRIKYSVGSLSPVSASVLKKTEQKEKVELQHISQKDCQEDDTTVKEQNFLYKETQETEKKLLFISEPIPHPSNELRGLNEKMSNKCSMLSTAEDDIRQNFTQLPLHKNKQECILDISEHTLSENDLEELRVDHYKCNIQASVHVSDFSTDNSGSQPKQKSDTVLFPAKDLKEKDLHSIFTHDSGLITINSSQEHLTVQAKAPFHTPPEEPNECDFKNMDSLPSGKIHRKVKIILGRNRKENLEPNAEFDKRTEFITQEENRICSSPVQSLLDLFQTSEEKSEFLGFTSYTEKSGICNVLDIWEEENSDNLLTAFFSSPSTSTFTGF
T2 sequence (O00311 whole entry): as the sequence (O00311 whole entry) above
T2 sequence (Q9UBU7 whole entry partner): as the sequence (Q9UBU7 whole entry partner) above

With `Cc1ncsc1-c1nc(C2CCNCC2)c(Cl)c(=O)[nH]1` [Compound 2, 5-chloro-2-(4-methylthiazol-5-yl)-4-(4-piperidyl)-1H-pyrimidin-6-one], the IC50 at Cdc7/ASK [1] is 3.16 nM. Also, on Cdc7 [2], the EC50 was 2000 nM.
Regarding `O=c1[nH]c(-c2scnc2Cl)nc(N2CCNCC2C(F)F)c1Cl` (stereo not drawn) [Compound 67, 5-chloro-2-(4-chlorothiazol-5-yl)-4-[2-(difluoromethyl)piperazin-1-yl]-1H-pyrimidin-6-one], the EC50 on Cdc7 [3] is 97.7 nM. Besides, the IC50 at Cdc7/ASK [4] was 6.03 nM.
In the case of `O=c1[nH]c(-c2scnc2Cl)nc(N2CCNCC2C(F)(F)F)c1Cl` (stereo not drawn) [Compound 68, 5-chloro-2-(4-chlorothiazol-5-yl)-4-[2-(trifluoromethyl)piperazin-1-yl]-1H-pyrimidin-6-one], the EC50 at Cdc7 [3] is 200 nM. Also, the IC50 on Cdc7/ASK [4] was 6.92 nM.
